Measured values reported in publication PMC8624133, “10th Trends in Medical Mycology Held on 8 to 11 October 2021, Aberdeen, Scotland, Organized by the European Confederation of Medical Mycology (ECMM)” (Journal of Fungi, 2021).
≈ marks a conversion by molar mass, not a printed value. Read-outs that look alike come from different tables or passages of the source. Starred links: 1 amine or outer side, 2 acyl side, 3 side chain; linkers in the order of their positions; H or OH if unused. Positions of bridges follow the written chain, without caps; N, C: chain ends. Non-standard residues stand in square brackets, D forms with d. Residues, ends and D or L forms follow the SMILES beside them. *: point of attachment. Orn(4R-OH,5R-OCH2CH2NMe3+) = C[N+](C)(C)CCO[C@@H](N[*:3])[C@H](O)C[C@H](N[*:1])C(=O)[*:2]; pTerphenylCO(4''-OnC5H11) = CCCCCOc1ccc(-c2ccc(-c3ccc(C(=O)*)cc3)cc2)cc1; Orn(4R-OH,5R-OH) = O=C([C@H](C[C@@H](O)[C@@H](O)N[*:3])N[*:1])[*:2]; hTyr(3S-OH,4S-OH) = N[C@H](C(=O)O)[C@H](O)[C@@H](O)c1ccc(O)cc1; Pro(3S-OH,4S-Me) = C[C@H]1CN[C@H](C(=O)O)[C@H]1O; Hyp = O=C(O)[C@@H]1C[C@@H](O)CN1

How the values were obtained:
[1] = tested on: R. delemar 99–880; assay: CLSI M38 in vitro susceptibility; type: cell-based, Rhizopus delemar
Method: (§1) Methods & Materials: In vitro susceptibility was conducted by the CLSI M38 method using a clinical isolate of Rhizopus delemar (a common cause of mucormycosis). ICR mice were immunosuppressed with cyclophosphamide and cortisone acetate on days −2, +3, and +8, relative to infection with intratracheally instilled R. delemar. […] Mice survival through Day +21 served as the primary endpoint.

[2] = tested on: R. delemar; assay: Murine mucormycosis, immunosuppressed mice infected intratracheally; type: in vivo, ICR mice; settings: n = 20/arm
Method: as §1

[3] = tested on: C. auris clinical strains; assay: organism not typed; type: cell-based, Candida auris; settings: range, 78 strains from patients with COVID-19
[4] = tested on: C. glabrata isolates; assay: Rapid XTT assay based on EUCAST E.Def 7.3; type: cell-based, Candida glabrata; settings: […], mean ± SD
[5] = tested on: Candida auris isolates; assay: microbe, parasite or virus in culture; type: cell-based
[6] = tested on: Rasamsonia argillacea species complex; assay: Antifungal susceptibility testing; type: cell-based; settings: sputum isolate of a CF patient
[7] = tested on: C. albicans and C. glabrata; assay: FUNGINOS candidemia survey, susceptibility according to CLSI; type: cell-based; settings: share of isolates
[8] = tested on: C. glabrata; assay: ARIA surveillance, CLSI M27 broth microdilution; type: cell-based, Candida glabrata; settings: CLSI M60
Method: Materials & Methods: Isolates (n = 730) were collected and re-identified by MALDI-TOF or molecular methods. […] Percentage susceptibility (%S) or wild-type (%WT) were calculated according to CLSI breakpoints (CLSI supplement M60) or epidemiological cut-off values (CLSI supplement M59), respectively.

[9] = tested on: Phaeoacremonium parasiticum; assay: Antifungal susceptibility testing; type: cell-based
Method: Results: Cultures for bacteria were sterile. Culture on Sabouraud was positive after 5 days of incubation, showing slow growing and initially white colonies. […] Its identification was performed by sequencing the internal transcribed spacer (ITS) region of ribosomal DNA, being the isolate identified as Phaeoacremonium parasiticum (100% homology).

[10] = tested on: Parathyridaria percutanea; assay: In vitro antifungal susceptibility; type: cell-based
[11] = tested on: invasive C. glabrata strains; assay: YeastOne Sensititre colorimetric broth microdilution; type: cell-based, Candida glabrata; settings: Nakaseomyces glabratus
Method: Material and Method: Thirty-six clinical isolates of invasive C. glabrata strains were analyzed in this study. Minimum inhibitory concentrations (MICs) were determined using colorimetric broth microdilution (YeastOneSensititre, Trek diagnostics). Genomic DNA was isolated using Qiagen DNA extraction Kit. The FKS1 and FKS2 gene fragment were amplified and PCR products were purified prior to sequencing. Double-strand sequencing of PCR products was performed using Sanger sequencing methodology. Sequences were analyzed with MEGA-6 software to identify specific SNP combination against wild-type sequences of C. glabrata.

[12] = tested on: C. auris; assay: EUCAST EDef 7.3.1 MIC and checkerboard microdilution; type: cell-based, Candida auris
Method: Methods: We studied 22 C. auris isolates obtained from different clinical samples from the Hospital La Fe, Valencia, Spain (eight from blood culture, seven from oropharynx and seven from urine cultures). Candida parapsilosis ATCC 22019 and Candida krusei ATCC 6258 were used as quality controls. The minimum inhibitory concentration (MIC) was determined according to the European Committee on Antibiotic Susceptibility Testing (EUCAST) EDef 7.3.1 document. The interaction between citral and the rest of antifungal drugs was assessed by a checkerboard microdilution method. […] The in vitro interaction of the drug combinations was interpreted in terms of the fractional inhibitory concentration index (FICI) as follows: FICI < 1, synergistic; FICI equal to 1, additive; and FICI > 1, indifferent or antagonistic.

[13] = tested on: C. guilliermondii; assay: EUCAST E. Def 7.3.2 microdilution; type: cell-based, Candida guilliermondii; settings: n = 62
[14] = tested on: C. fermentati; assay: EUCAST E. Def 7.3.2 microdilution; type: cell-based, Candida fermentati; settings: n = 2
[15] = tested on: Aspergillus tubingensis; assay: EUCAST susceptibility; type: cell-based; settings: read-out: MIC
Method: The fungus was identified as Aspergillus niger and liposomal amphotericine B was switched to anidulafungin pending susceptibility testing as the patient had pre-existing […] (eGFR CKD-EPI 40 mL/min/1.73 m²). […] Despite increasing the anidulafungin dosage to 200 mg daily and adequate voriconazol levels, serum galactomannan levels remained elevated (index 2.1 at discharge). […] Since no extracardiac sources were found and the patient did well clinically, they were discharched. Anidulafungin was switched to caspofungin to facilitate ongoing IV treatment in the outpatient setting. […] The patient died shortly after. Obduction was not performed.

[16] = tested on: serious or life-threatening pulmonary aspergillosis; assay: Special Needs program: inhaled opelconazole in patients; type: in vivo, human
From the text: Opelconazole has been supplied to patients with serious or life-threatening pulmonary aspergillosis who have not responded to available mold-active therapies under a Special Needs program regulated in the United Kingdom by the Medicines and Healthcare products Regulatory Agency. Successful outcomes in the first two patients who developed invasive pulmonary aspergillosis due to infections with A. fumigatus complex shortly after lung transplantation have been reported [Pagani 2020].

[17] = following inhaled delivery, ref Colley T et al., 2017, 2019; cited from earlier work
From the text: A potent, effective inhaled anti-fungal agent with prolonged lung tissue residence and minimal systemic […] would be a valuable adjunct to current therapeutic options. To date, treatment using inhaled antifungal agents has been limited to repurposing available systemic medicines. Opelconazole is a novel triazole antifungal agent which was specifically designed for inhaled use and which is being developed as an inhaled treatment for pulmonary fungal disease.

[18] = Open-label single-dose study in hepatic impairment; type: in vivo, human
Method: Materials &Methods: The safety, tolerability, and PK of rezafungin in subjects with moderate (Group 1a) and severe (Group 2a) HI (Child-Pugh class Band C) and healthysubjects (HS, Groups 1b and 2b) was investigated in this open-label, single-dose study. Each Hl group enrolled was matched to a separate HS group (n = 8 each 32 total) by age, sex and body mass index (BMI) and received a single 400-mg intravenous 1 h infusion of RZF.Plasma PK sampling was performed at various time points through 336 h post- dose. Rezafungin PKparameters were derived using non-compartmental analysis. Safety and tolerability were assessed throughout the study.

[19] = tested on: Candida albicans (CA); assay: Post-antifungal effect (PAFE); type: cell-based; settings: CA clinical isolate; all concentrations (1×, 4×, 16× bMIC), 1 h exposure
Method: (§2) Materials &Methods: Six Candida spp. […] For PAFE determinations, antifungal concentrations of 1×, 4×, and 16× bMiC were used. A starting inoculum of 1–[…] CFU/mLwas added to RPMl with the antifungal agent. Post 1 h exposure, cells were washed 3 times and resuspended in 10 mL of pre-warmed RPMl. Colony counts were performed at to, 1 h before and after final washt t2, t4, t8, t12, t24 and t48 h. PAFE was calculated as the difference in time required for isolates to rrow1-logio following the final cell wash compared to the growth control.

[20] = tested on: C. glabrata (CGLA); assay: Post-antifungal effect (PAFE); type: cell-based, Candida glabrata
Method: as §2

[21] = tested on: C. parapsilosis (CPRP); assay: Post-antifungal effect (PAFE); type: cell-based, Candida parapsilosis; settings: CPRP ATCC 22019, all concentrations
Method: as §2

[22] = tested on: C. albicans; assay: Neutrophil control of hyphal growth (swarming); type: cell-based, Candida albicans; settings: neutrophils of SOT and SCT recipients, ex vivo
Method: Methods and Materials: Twenty-one SOT, 19 SCT and 23 healthy control patients (HC) were identified and consented at primary care/outpatient transplant clinics. Transplant recipients were enrolled at a time period two to four months post-transplant. Following consent and peripheral blood collection, neutrophils were freshly isolated and co-incubated with C. albicans and the percent remaining live yeast was measured using a viability dye compared to a standard control to determine fungal elimination by neutrophils. Growth inhibition of C. albicans was also quantified by neutrophil swarming to yeast spotted onto glass slides, assessed by live cell imaging with or without G-CSF. Effect of soluble factors on neutrophils function was determined by incubation of healthy neutrophils with SOT and SCT serum and measuring ability to control C. albicans.

[23] = 11 treated patients and 1 on prophylaxis

CC(C)[C@@H](C)[C@@]1(C)CC[C@]2(C)[C@H]3CC[C@@H]4[C@@]5(COC[C@@]4(C)[C@@H](OC[C@](C)(N)C(C)(C)C)[C@H](n4ncnc4-c4ccncc4)C5)C3=CC[C@@]2(C)[C@@H]1C(=O)O [IBREXA, Ibrexafungerp]
minimum effective concentration (MEC) [1]: > 8 µg/mL | % Survival ([2]; through Day +21, placebo 0): 35% | Median Survival ([2]; treatment from 24 h post infection, IBREXA 30 mg/kg po BID 7 d, LAMB 10 mg/kg iv 4 d, POSA 30 mg/kg po QD 7 d, placebo 8): 15 days

CCCCCOc1ccc(-c2ccc(-c3ccc(C(=O)N[C@H]4C[C@@H](O)[C@@H](O)NC(=O)[C@@H]5[C@@H](O)[C@@H](C)CN5C(=O)[C@H]([C@@H](C)O)NC(=O)[C@H]([C@H](O)[C@@H](O)c5ccc(O)cc5)NC(=O)[C@@H]5C[C@@H](O)CN5C(=O)[C@H]([C@@H](C)O)NC4=O)cc3)cc2)cc1 [anidulafungin] ({pTerphenylCO(4''-OnC5H11)}-[Orn(4R-OH,5R-OH)]T[Hyp][hTyr(3S-OH,4S-OH)]T[Pro(3S-OH,4S-Me)]; lactam 1-C)
MIC [3]: 0.015 to 8 µg/mL (≈ 0.0132 to 7.02 µM) | XTT-absorbance in drug-treated wells ([4]; drug-free 0.37 ± 0.04): 0.11 ± 0.03 | XTT-absorbance in drug-treated wells ([4]; drug-free 0.39 ± 0.05): 0.25 ± 0.06 | categorised as resistant on MIC ([5]; CDC guidelines): none | MIC ([5]; Candidozyma auris, […], IQR given, read-out: median MIC): 0.25 µg/mL (≈ 0.219 µM) | minimal inhibitory concentrations (MIC) [6]: low MIC | non-susceptibility [7]: 2% | susceptibility ([8]; Italy): 15.8% | susceptibility ([8]; Panama): 91.7% | minimal inhibitory concentrations (MIC), in words [9]: higher | in vitro susceptibility category [10]: resistance | MIC ([11]; 36 clinical isolates, read-out: median (Min–Max) MIC): 0.06 µg/mL | MIC ([11]; isolate with FKS2 I661T): 0.06 µg/mL | MIC of anidulafungin in combination with citral [12]: 0.016 µg/mL | MIC ([12]; Candidozyma auris, 22 clinical isolates): 0.125 µg/mL | MIC50 ([13]; Meyerozyma guilliermondii): 0.25 µg/mL (≈ 0.219 µM) | MIC90 ([13]; Meyerozyma guilliermondii): 0.5 µg/mL (≈ 0.438 µM) | GM [13]: 0.304 µg/mL | MIC Range [13]: 0.008 to 1 µg/mL | GM [14]: 0.25 µg/mL | MIC Range [14]: 0.25 µg/mL (≈ 0.219 µM) | MIC [15]: 0.03 µg/mL (≈ 0.0263 µM)

Cc1cc(N2CCN(c3ccc(C(=O)Nc4ccc(F)cc4)cc3)CC2)ccc1OC[C@@H]1CO[C@@](Cn2cncn2)(c2ccc(F)cc2F)C1 [opelconazole]
drug-drug interactions [16, 23]: no drug-drug interactions reported | tolerability [16, 23]: generally well tolerated | Favorable responses at 3 months ([16]; patients who received opelconazole as treatment after no response to mold-active therapies, number of patients): 9 out of the 11 | local concentrations in the lung [17]: high | systemic bioavailability [17]: minimal

CCCCCOc1ccc(-c2ccc(-c3ccc(C(=O)N[C@H]4C[C@@H](O)[C@@H](OCC[N+](C)(C)C)NC(=O)[C@@H]5[C@@H](O)[C@@H](C)CN5C(=O)[C@H]([C@@H](C)O)NC(=O)[C@H]([C@H](O)[C@@H](O)c5ccc(O)cc5)NC(=O)[C@@H]5C[C@@H](O)CN5C(=O)[C@H]([C@@H](C)O)NC4=O)cc3)cc2)cc1 [rezafungin, Rezafungin] ({pTerphenylCO(4''-OnC5H11)}-[Orn(4R-OH,5R-OCH2CH2NMe3+)]T[Hyp][hTyr(3S-OH,4S-OH)]T[Pro(3S-OH,4S-Me)]; lactam 1-C)
AEs, moderate hepatic impairment group ([18]; all mild severity): 5 | AEs, severe hepatic impairment group ([18]; all moderate severity, unrelated): 3 | AEs, all groups ([18]; in 7 of 32 subjects): 9 | mean exposure lower than in healthy subjects ([18]; moderate or severe HI, single 400-mg intravenous 1 h infusion, AUC, Cmax): ~ 30% | mean half-life ([18]; range across groups, non-compartmental analysis): 110 to 124 h | PAFE [19]: > 14.9 h | PAFE ([20]; CGLA #3 isolate, 1× bMIC): > 46.7 h | PAFE ([20]; both CGLA strains, all concentrations): > 40 h | PAFE [21]: > 40 h

B1: G-CSF (protein, UniProt P09919 31-207, looked up)
Granulocyte …: TPLGPASSLPQSFLLKCLEQVRKIQGDGAALQEKLVSECATYKLCHPEELVLLGHSLGIPWAPLSSCPSQALQLAGCLSQLHSGLFLYQGLLQALEGISPELGPTLDTLQLDVADFATTIWQQMEELGMAPALQPTQGAMPAFASAFQRRAGGVLVASHLQSFLEVSYRVLRHLAQP
neutrophil ability to control hyphal growth [22]: partially restored
